{"source": "patent US9604974B2", "about": "“Compounds as modulator of JAK-STAT pathway, methods and applications thereof” (UNIVERSITY OF MYSORE, priority 2015, dated 2017)", "key": {"HepG2 cells [1]": {"system": "HepG2 cells", "experiment": "CXCL12-induced wound migration assay", "assay_type": "cell-based, human", "conditions": "5 μM CIMO, presence and absence of CXCL12, versus controls", "description": "STAT3 targeted gene products are known to be involved in cancer cell migration. FIG. 5A interprets the movement of cancer cells in the presence and absence of CIMO and C—X—C motif chemokine 12 (CXCL12) protein. CXCL12 is a chemokine which essentially stimulates the swift migration of cancer cells. An IBIDI culture insert (IBIDI GmbH) is developed with two reservoirs separated by a 500 μm thick wall created by a culture insert in a 35 mm petri dish. 70 μl of HepG2 cells (5×10^5 cells/ml) are added into the two reservoirs of the same insert and incubated at about 37° C. After 12 hours, the insert is gently removed by creating a gap of ˜500 μm. The cells are treated with about 5 μM CIMO for about 8 hours before being exposed to about 100 ng/mL CXCL12 for about 24 hours. Width of wound is measured at time zero and 24 hours of incubation with and without CIMO in the absence or presence of CXCL12. Graphs are plotted against the percentage of migration or distance the cells moved before and after treatment, normalized to control."}, "SHP-1, SHPTP-2, PTP1B": {"system": "SHP-1, SHPTP-2, PTP1B", "experiment": "Western blot of tyrosine phosphatase expression", "assay_type": "cell-based, human", "conditions": "HepG2, CIMO up to 4 hours"}, "STAT3": {"system": "STAT3", "experiment": "IL-6 induced STAT3 phosphorylation in Hep3B", "assay_type": "cell-based", "conditions": "10 μMol/L CIMO, IL-6 10 ng/mL", "description": "(§1) FIG. 3 depicts comparative study of cell viability between STAT3-siRNA transfected and Compound 1 (CIMO) treated HepG2 cells [A]. Correspondingly, Western Blot analysis is used to assess the levels of phospho-STAT3 and STAT3 in HepG2 cells with siRNA-mediated depletion STAT3 expression and on exposure to 4 μM CIMO. Whole cell extract is prepared and resolved on SDS-PAGE gel, electrotransferred onto nitrocellulose membrane, and probed for phospho-STAT3 and the same blot is stripped and reprobed with STAT3 antibody and Beta actin to verify equal protein loading. [B] showcases the modulation of STAT3 mediated transcription, α2-M promoter activity by Compound 1 (CIMO) in HepG2 cells. [C] depicts the inhibition of IL-6-induced phosphorylation of STAT3, JAK1 and JAK2 by Compound 1 (CIMO). Hep3B cells (5×10^5/mL) are treated with 10 μMol/L CIMO for the indicated times and then stimulated with IL-6 (10 ng/mL) for about 15 minutes. Whole-cell extracts are then prepared, resolved on SDS-PAGE gel, electrotransferred onto nitrocellulose membrane and probed with phospho-STAT3, phospho-JAK1 and phospho-JAK2 antibodies. The same blot is stripped and reprobed with STAT3, JAK1 and JAK2 antibody to verify equal protein loading. [D] and [E], showcases the suppression of STAT3 regulated gene products involved in cell proliferation and survival by Compound 1 (CIMO). […]"}, "c-Src": {"system": "c-Src", "experiment": "Western blot of constitutive phospho-Src in HepG2", "assay_type": "cell-based, human", "conditions": "HepG2, 10 μMol/L CIMO"}, "HepG2 cells [2]": {"system": "HepG2 cells", "experiment": "MTT anti-proliferative assay, HepG2", "assay_type": "cell-based", "conditions": "Homo sapiens", "description": "(§2) The anti-proliferative activity of Formula I compounds are studied on HepG2 cells using MTT assay. Briefly, the cells (2.5×10^4/ml) are incubated in triplicate in a 96-well plate in the presence or absence of different concentrations of compounds in a final volume of 0.2 ml up to 72 hours at 37° C. Thereafter, 20 μl MTT solution (5 mg/ml in PBS) is added to each well. After 2 hours of incubation at 37° C., 0.1 ml lysis buffer (20% SDS, 50% dimethyl-formamide) is added; incubation is continued overnight at 37° C.; and the optical density (OD) at 570 nm is measured by Tecan plate reader."}, "JAK1": {"system": "JAK1", "experiment": "IL-6 induced JAK1 phosphorylation in Hep3B", "assay_type": "cell-based", "conditions": "10 μMol/L CIMO, IL-6 10 ng/mL", "description": "as §1"}, "PLC/PRF5": {"system": "PLC/PRF5", "experiment": "MTT anti-proliferative assay, PLC/PRF5", "assay_type": "cell-based", "conditions": "Homo sapiens, PLC-PRF-5", "description": "as §2\n(§3) Additionally, Compound 1 is tested on a panel of six cell lines including Hep3B, PLC/PRF5, AGS (gastric cancer cell line), DU145 (prostrate cancer cell line), MDA MB231 (breast cancer cell line) and CAL27 (head and neck cancer cell line) cells."}, "Hep3B": {"system": "Hep3B", "experiment": "MTT anti-proliferative assay, Hep3B", "assay_type": "cell-based", "conditions": "Homo sapiens", "description": "as §2, §3"}}, "data": [{"smiles": "COc1ccc(C2CNC(c3cn(Cc4ccc(-c5ccccc5C#N)cc4)c4ccccc34)OC23CCCCC3)cc1", "note": "(stereo not drawn) [Compound 1]", "values": [{"measurement": "limitation of HepG2 cell migration", "setting": "HepG2 cells [1]", "value": "~50", "unit": "%"}, {"measurement": "levels of SHP-1, SHPTP-2, PTP1B", "setting": "SHP-1, SHPTP-2, PTP1B", "value": "no change"}, {"measurement": "IL-6 induced phosphorylation of STAT3", "setting": "STAT3", "value": "substantially down-regulates"}, {"measurement": "phosphorylation of c-Src kinases", "setting": "c-Src", "value": "significant inhibition"}, {"measurement": "IC50", "setting": "HepG2 cells [2]; HepG2, Table 2", "value": 7.3, "unit": "µM"}, {"measurement": "IC50", "setting": "HepG2 cells [2]; HepG2 cells after 72 hours, MTT", "value": 7.3, "unit": "µM"}, {"measurement": "IL-6 induced phosphorylation of JAK1", "setting": "JAK1", "value": "substantially down-regulates"}, {"measurement": "IC50", "setting": "PLC/PRF5", "value": 38.8, "unit": "µM"}, {"measurement": "IC50", "setting": "Hep3B", "value": 46.9, "unit": "µM"}]}]}
